{"source": "paper PMC6878970", "about": "“Understanding the physicochemical properties and degradation kinetics of nicotinamide riboside, a promising vitamin B3nutritional supplement” (Food & Nutrition Research, 2019)", "key": {"Sirtuin (SIRT)": {"test_system": "Sirtuin (SIRT)", "parameters": "method as in PMID 12297502, PMID 14522996, PMID 12899610", "conditions": "cited from earlier work"}, "[1]": {"assay": "Experimental determination of pKa by UV spectroscopy", "type": "physicochemical", "conditions": "NaOH solutions; first focused experiment, pH range 11.0–12.2", "method": "NR stock solution was added to nine respective buffer solutions ranging from pH 1.5 to 12.8 and analysed by UV spectroscopic scanning over 200–500 nm using a Cary 50 scan UV-visible spectrophotometer (Agilent Technologies, USA). […] Equation 1 is a modified Beers–Lambert and Henderson–Hasselbalch equation ([14]). This was used to calculate pKa. AI is the absorbance of the ionised species, AM is the absorbance of the molecular species, and A is the absorbance at any given pH. The same method as above was then repeated using the same parameters and equipment for a duplicate result.\npKa=pH+logAI−A/A−AM Equation 1"}, "[2]": {"assay": "Aqueous solubility determination", "type": "physicochemical", "conditions": "for solubility at 24 h: aqueous buffer, thermodynamic from solid", "method": "Three pH environments, namely pH 2.0, 5.0, and, 7.4, were used to determine the aqueous solubility of NR. Each buffer was added to a glass vial and stored at 4°C prior to the experiments. NRCl powder was then slowly added over a 24-h-periodunder constant mixing until the solution was clearly saturated (visual observation, n = 3). Aliquots were then drawn from each vial and passed through a 0.22 μm syringe filter unit (Millipore, Merck, USA). Samples were then analysed using the validated HPLC method."}, "[3]": {"assay": "NRCl stability in simulated gastrointestinal fluids", "type": "physicochemical", "method": "NRCl powder was tested under simulated GI conditions to assess the stability of the raw material in fluids relevant to the GI physiology. These experiments were carried out using a Copley™ dissolution bath equipped with the USP II paddle apparatus at a stirring rate of 75rpm and a temperature of 37°C± 0.1°C. Five dissolution media were tested (Table 2). 0.1N HCl, USP simulated gastric fluid without pepsin (USP SGFW/O pepsin), and USP simulated gastric fluid with pepsin (USP SGF) were used to simulate the stomach environment. Phosphate standard buffer (Int. Pharm. SIF) and simulated intestinal fluid pH 6.8 (USP SIF) were used to simulate the intestinal environment. A 24-h simulation was also performed using the USP prolonged release (USP PR) method whereby for the first 2 h of the experiment the NRCl was added to 750 mL 0.1N HCl. Subsequently, 250 mL of 0.2M trisodium phosphate was added and pH adjusted to pH 6.8 for the remaining 22 h. This step-change pH model simulates the pH change in traversing from the stomach to the intestine ([15])."}, "[4]": {"assay": "Degradation kinetics of NRCl in aqueous solutions (Arrhenius)", "type": "physicochemical", "conditions": "for activation energy Ea of degradation: 55, 65, 75°C, n = 5", "method": "NRCl degradation products and mechanism were determined and confirmed using ^1H NMR. NRCl degradation kinetics in aqueous solution was determined using three pH environments: pH 2.0, 5.0, and 7.4 (each with a constant ionic strength of 0.3M adjusted using NaCl), and three experimental temperature conditions, namely, 55°C, 65°C, and 75°C, respectively. In all cases, five replicates were used for pH–temperature combinations and each was an individual, sealed, and labelled glass vial with 20mL of the respective buffer. For each experiment, these vials were left overnight to equilibrate to the respective temperature environment in a temperature-controlled oven. At the start of each experiment, the vials were removed and a stock solution of NR was added. Aliquots were then extracted from each vial at this point for a t = 0 and the vials were placed back into the oven until the next time point. The sampling intervals were every 2, 1, and 0.5 h for 55°C, 65°C, and 75°C, respectively, and a total of five time points were used for each individual vial. When an aliquot was removed, it was dispensed into a 2mL micro tube and placed in ice to quench the reaction until preparation for HPLC analysis."}, "[5]": {"assay": "Combinatorial DSC and 1H NMR (qNMR) thermal decomposition", "type": "physicochemical", "conditions": "quench-cooled", "method": "A Bruker® Ultrashield 400 MHz NMR was used for NMR spectroscopy. All samples were prepared using deuterated water. For ^1H NMR spectra acquisition, 256 scans were used. A relative quantitative NMR (qNMR) method was established and validated by comparing the integral values of NR chemical shift peaks to the integral values of the peaks of Nam. The integral of a peak is directly proportional to the number of nuclei the peak represents and the molar concentration of the compound in the sample ([14]). The percentage of NR was calculated using Equation 2 (modified from the literature), where INR H2 and INam H2 were the integral values of the singlet of NR H2 at 9.6 ppm and the singlet for Nam H2 at 8.6 ppm, respectively. N represents the number of nuclei (protons) that contribute to each peak. In this case, N = 1 for both NR H2 and Nam H2 peaks as they represent one proton each.\n% NR in smaple=(INR H2/NNR H2)/(INR H2/NNR H2)+(INam H2/NNam H2)×100 Equation 2\nDSC was used in conjunction with ^1H NMR spectroscopy to assess NR stability at certain temperatures and confirm compositional change throughout the entire thermal degradation process. […] This was then repeated in pans with no lids and these pans were then put in 1mL of D2O until all the contents were fully dissolved. The resulting D2O solutions were then subjected to ^1H NMR analysis, as previously detailed, to assess the stability of NRCl at each stage of its melting motif."}, "human blood NAD+": {"test_system": "human blood NAD+", "parameters": "method as in PMID 27721479", "conditions": "after one single oral dose; cited from earlier work"}, "[6]": {"parameters": "method as in PMID 26791540", "conditions": "cited from earlier work"}, "mammalian cell lines": {"test_system": "mammalian cell lines", "parameters": "method as in PMID 18052316", "conditions": "cited from earlier work"}}, "note": "Where “and” joins values, the source holds several entries; their conditions need not be identical. Identical values can stand only once."}
{"smiles": "NC(=O)c1cccnc1", "note": "[Nam, Nicotinamide]", "values": [{"measurement": "Sirtuin (SIRT) inhibition", "setting": "Sirtuin (SIRT)", "result": "known Sirtuin (SIRT) inhibitor"}]}
{"smiles": "NC(=O)c1ccc[n+]([C@@H]2O[C@H](CO)[C@@H](O)[C@H]2O)c1", "note": "[NRCl, nicotinamide riboside chloride]", "values": [{"measurement": "pKa", "setting": "[1]", "result": "11.5 ± 0.2"}, {"measurement": "solubility class according to the USP definitions", "setting": "[2]; all three tested pH environments (2.0, 5.0, 7.4), freely soluble = 100–1,000 mg/mL", "result": "freely soluble"}, {"measurement": "solubility at 24 h", "setting": "[2]; pH 7.4, aqueous buffer", "result": "826 ± 34.4", "unit": "mg/mL"}, {"measurement": "solubility at 24 h", "setting": "[2]; pH 2.0", "result": "972.7 ± 8.1", "unit": "mg/mL"}, {"measurement": "solubility at 24 h", "setting": "[2]; pH 5.0", "result": "860 ± 31", "unit": "mg/mL"}, {"measurement": "NRCl remaining", "setting": "[3]; 0.1N HCl pH 1.2, 37°C, 75rpm, after 2 h", "result": "97.64 ± 0.08", "unit": "%"}, {"measurement": "NRCl remaining", "setting": "[3]; 24-h GI simulation (USP PR, pH 1.2 then 6.8 after 2 h), after 8 h", "result": "90.51 ± 0.82", "unit": "%"}, {"measurement": "NRCl remaining", "setting": "[3]; Int. Pharm. SIF pH 6.8, 37°C, after 2 h", "result": "94.32 ± 1.16", "unit": "%"}, {"measurement": "NRCl remaining", "setting": "[3]; Int. Pharm. SIF pH 6.8, 37°C, after another 2 h (4 h)", "result": "92.71 ± 0.81", "unit": "%"}, {"measurement": "NRCl remaining", "setting": "[3]; USP SGF (with pepsin) pH 1.2, 37°C, 75rpm, after 2 h", "result": "97.17 ± 0.19", "unit": "%"}, {"measurement": "NRCl remaining", "setting": "[3]; USP SGF without pepsin pH 1.2, 37°C, 75rpm, after 2 h", "result": "98.59 ± 0.10", "unit": "%"}, {"measurement": "NRCl remaining", "setting": "[3]; USP SIF pH 6.8, 37°C, after 2 h", "result": "94.71 ± 2.66", "unit": "%"}, {"measurement": "NRCl remaining", "setting": "[3]; USP SIF pH 6.8, 37°C, after another 2 h (4 h)", "result": "93.54 ± 2.37", "unit": "%"}, {"measurement": "change of degradation rate on raising the pH value from 5.0 to 7.4", "setting": "[4]; at each respective temperature", "result": "doubled"}, {"measurement": "activation energy Ea of degradation", "setting": "[4]; pH 7.4", "result": "82.8 (±4.4) kJ/mol"}, {"measurement": "degradation (qNMR)", "setting": "[5]; solid heated to 115°C", "result": "completely intact"}, {"measurement": "increase in human blood NAD+", "setting": "human blood NAD+", "result": "more than twofold"}]}
{"smiles": "NC(=O)c1ccc[n+]([C@@H]2O[C@H](CO)[C@@H](O)[C@H]2O)c1", "note": "[NR, Nicotinamide riboside]", "values": [{"measurement": "pre-exponential factor A of degradation", "setting": "[4]; pH 2.0", "result": "4.8e+10", "unit": "min⁻¹"}, {"measurement": "activation energy Ea of degradation", "setting": "[4]; pH 2.0", "result": "75.4 (±2.9) kJ/mol and 75.4 kJ/mol"}, {"measurement": "pre-exponential factor A of degradation", "setting": "[4]; pH 5.0", "result": "3.2e+10", "unit": "min⁻¹"}, {"measurement": "activation energy Ea of degradation", "setting": "[4]; pH 5.0", "result": "76.9 (±1.1) kJ/mol and 76.9 kJ/mol"}, {"measurement": "pre-exponential factor A of degradation", "setting": "[4]; pH 7.4", "result": "1.8e+12", "unit": "min⁻¹"}, {"measurement": "activation energy Ea of degradation", "setting": "[4]; pH 7.4", "result": 82.8, "unit": "kJ/mol"}, {"measurement": "increase in the degradation rate for every 10°C temperature elevation", "setting": "[4]; same pH environment", "result": "approximate twofold increase"}, {"measurement": "degradation (qNMR)", "setting": "[5]; solid heated to 115°C", "result": 2, "unit": "%"}, {"measurement": "degradation (qNMR)", "setting": "[5]; solid heated to 120°C", "result": 7, "unit": "%"}, {"measurement": "degradation (qNMR)", "setting": "[5]; solid heated to 125°C", "result": 55, "unit": "%"}, {"measurement": "share of the sample that was NR (qNMR)", "setting": "[5]; solid heated to 140°C", "result": 0.45, "unit": "%"}, {"measurement": "lowest adverse effect level", "setting": "[6]", "result": "1,000 mg/kg/day"}, {"measurement": "no-observed-adverse-effect level (NOAEL)", "setting": "[6]", "result": 300, "unit": "mg/kg/day"}, {"measurement": "increase of available NAD+", "setting": "mammalian cell lines", "result": "up to twofold"}]}
